Source: patent publication US20260373160A1, “COMPOSITION FOR IMPROVEMENT, PREVENTION OR TREATMENT OF STRESS AND DEPRESSION RELATED DISEASES COMPRISING TALAMPANEL” (POSTECH RESEARCH AND BUSINESS DEVELOPMENT FOUNDATION, priority 2022, published 2026)

Tests used:
Format in all cases: in vivo, C57BL6/J mice
[1] = tested on: mouse model of chronic stress-induced depression; test: Forced swim test (FST) in mouse model of chronic stress-induced depression; conditions: i.p. daily, last 4 of 6 minutes scored
Experimental: (§1) Experimental animals, 8-9 week old male C57BL6/J mice, were provided by Hyochang Science in Daegu, Korea. Mice were provided with food and water ad libitum under diurnal lighting conditions (12 hours light, 12 hours dark). All animal experimental procedures were approved by the Institutional Animal Care and Use Committee (IACUC) of Pohang University of Science and Technology, and all experiments were conducted in compliance with the approved guidelines.
To induce mice of chronic restraint stress-based depression, 8-9 week old male C57BL6/J mice were housed in single cages one day before the experiment. […]
To perform the forced swim test in a mouse model of chronic stress-induced depression, a cylindrical tank, with a diameter of 20 cm and a height of 30 cm, was filled with water at a temperature range of 25 °C to 28 °C until the water level reached 15 cm. Then, each mouse was carefully placed in water, and the mouse's activity was recorded on video for 6 minutes. […]
Of the total 6 minutes of recording, the first 2 minutes were excluded as habituation, and the immobile time of each mouse was measured for the next 4 minutes. Mouse movement was defined as any activity other than the minimal movements required to maintain body balance and to ensure the head remained above water, and the immobile time was measured. […]

[2] = tested on: mouse model of chronic stress-induced depression; test: Sucrose preference test (SPT) in mouse model of chronic stress-induced depression; conditions: 28 days of restraint stress, i.p. daily; 2% sugar solution vs water, 3 hours; FIG. 7
Experimental: as §1
(§2) To induce mice of chronic restraint stress-based depression, 8-9 week old male C57BL6/J mice were housed in single cages one day before the experiment.
(§3) Thirty minutes after drug administration, the mice were induced to enter a 50 ml conical tube with a hole to allow breathing, and paper towels were placed to eliminate any empty space, ensuring the mice remained in restraint for 4 hours.
To perform a sugar preference test in a mouse model of chronic stress-induced depression, the mice were deprived of food and water for 18 hours on Day 1 of the experiment. On Days 2 and 3, the mice were provided with food, along with a 2% sugar solution and water simultaneously to allow exposure to the 2% sugar. […] To measure the intake of the mice, the weights of the solution and bottle were recorded before and after the 3-hour test.
Sucrose preference was calculated by the following expression: (Sugar solution intake/Total liquid intake)×100. […]

[3] = tested on: mouse model of chronic stress-induced depression; test: Tail suspension test (TST) in mouse model of chronic stress-induced depression; conditions: 28 days of restraint stress, i.p. daily; 6 minutes scored; FIG. 6
Experimental: as §1, §2
Thirty minutes after drug administration, the mice were induced to enter a 50 ml conical tube with a hole to allow breathing, and paper towels were placed to eliminate any empty space, ensuring the mice remained in restraint for 4 hours. […]
The activity of each mouse was recorded on video for 6 minutes. Up to four mice were tested at a time, and the immobile time of each mouse was measured for a total of 6 minutes. The movement status of the mouse was defined based on limb movement, with a state of immobility determined when all limbs remained motionless, and the immobile time was measured. […]

[4] = Body weight change in mouse model of chronic restraint stress-based depression; conditions: for body weight change compared to the control group: 15 days, with 4 h daily restraint stress, FIG. 3
Experimental: as §1, §2, §3

## CC(=O)N1N=C(c2ccc(N)cc2)c2cc3c(cc2C[C@H]1C)OCO3 [talampanel]
[1]; 15 days of restraint stress, FIG. 4
  immobile time in forced swim test compared to the control group: significant reduction in immobile time
[1]; 28 days of restraint stress, FIG. 5
  immobile time in forced swim test compared to the control group: significant reduction in immobile time
[2]
  sucrose preference (sugar solution intake/total liquid intake) compared to the control group: increased preference for the sugar solution compared to the control group
[3]
  immobile time in tail suspension test compared to the control group: significant reduction in immobile time
[4]; 1 mg/kg i.p. daily
  body weight change compared to the control group: increase in body weight compared to the control group from Day 8 of administration
[4]; 10 mg/kg i.p. daily
  body weight change compared to the control group: increase in body weight compared to the control group from Day 8 of administration
[4]; i.p. daily, restraint stress, conclusion from body weight measurement
  effect on weight loss due to stress and depression: preventing weight loss caused by sustained stress
